Reference: patent US9662329B2, “Use of survivin antagonists in polyomavirus-related disease” (University of Pittsburgh—Of the Commonwealth System of …, priority 2012, dated 2017)
Counter-ions that a name gives are not always drawn. Like-named read-outs stand apart in the source and are kept apart here.

What was measured:
Format in all cases: cell-based, human
[1] = system: UISO; assay: Cell Titer Glo dose-response study; conditions: read-out: EC50 concentrations for MCC cell lines, UISO
From the text: (§1) Seven Merkel cell carcinoma cell lines: MKL-1, MKL-2, MS-1, UISO, MCC13, MCC26 and WaGa (kind gift of Jurgen Becker (Houben et al., Merkel cell polyomavirus-infected Merkel cell carcinoma cells require expression of viral T antigens. J Virol 84, 7064 (July, 2010); Ronan et al., Merkel cell carcinoma: in vitro and in vivo characteristics of a new cell line. J Am Acad Dermatol 29, 715 (November, 1993); Rosen et al., Establishment and characterization of a neuroendocrine skin carcinoma cell line. Lab Invest 56, 302 (March, 1987)); NCI-H69 small cell lung cancer cell line (ATCC); 293 human embryonic kidney cells (ATCC); U2OS osteosarcoma cell line (kind gift of Ole Gjoerup); BJhTERT immortalized foreskin fibroblast cell line (kind gift of Ole Gjoerup); and BJ primary foreskin fibroblasts (ATCC) were used to screen and evaluate the small molecules examined in this study (Houben et al., J Virol 84, 7064 (July, 2010); Ronan et al., J Am Acad Dermatol 29, 715 (November, 1993); Rosen et al., Lab Invest 56, 302 (March, 1987)). The Merkel cell lines and NCI-H69 were grown in RPMI 1640 supplemented with 10% fetal calf serum, penicillin and streptomycin at 37° C. in humidified air containing 5% CO2. The remaining cell lines were grown in DMEM supplemented with 10% fetal calf serum.
(§2) For EC50 measurements, dose-response curves were established for 17 drugs obtained individually in bulk stocks. Iodoacetamide (I1149), sanguarine chloride (S5890), NSC95397 (N1786), chelerythrine chloride (C2932), calmidazolium chloride (C3930), tetraethylthiuram disulfide (T1132), bay 11-7085 (B5681), quinacrine dihydro chloride (Q3251), ellipticine (E3380), amsacrine hydrochloride (A9809) and nutlin-3 (N6287) were purchased from Sigma Aldrich, USA.
(§3) Compounds that met the selection criteria <10% cell survival were purchased or obtained in bulk from NCI/NIH Developmental Therapeutics Program. Serial drug dilutions from 10^−4 M to 10^−9 M were used on MCC and non-MCC cell lines. Cells were seeded into 384-well plates at 6000 cells in 50 μl of medium per well. After 24 hours, 25 μl of 3× drugs were added at increasing concentration to each well. Cell viability was then measured using Cell Titer Glo (Promega) kit following manufacturer's instructions as described previously. Each drug concentration was tested in triplicate for each cell line and experiments were repeated twice. EC50 doses for the drugs were calculated using a four parameter logistic equation (GraphPad Prism).

[2] = system: MS-1; assay: Cell Titer Glo dose-response study
From the text: as §1, §2, §3

[3] = system: MKL-2; assay: Cell Titer Glo dose-response study; conditions: read-out: EC50 concentrations for MCC cell lines, MKL-2
From the text: as §1, §2, §3

[4] = system: WaGa; assay: Cell Titer Glo dose-response study; conditions: read-out: EC50 concentrations for MCC cell lines, WaGa
From the text: as §1, §2, §3

[5] = system: MKL-1; assay: Cell Titer Glo dose-response study
From the text: as §1, §2, §3

[6] = system: MKL-1 cells; assay: Cell cycle analysis (PI and BrdU staining); conditions: 12 h, YM155 100 nM, camptothecin 1 μM
Method: MKL-1 cells were treated with Accutase (Millipore) to break clumps and then resuspended in fresh medium containing drug and treated for 12 hours. Three hours before harvest 10 μM Bromodeoxyuridine (BrdU) was added. Cells were then harvested and fixed in chilled 70% ethanol and left overnight. The next day cells were washed, resuspended in 200 μl of 2M HCl/Triton X (1%) and incubated for 30 mins at room temperature. Cells were then centrifuged at 2000 rpm for 10 mins and neutralized in 200 μl of 0.1M sodium tetraborate, pH 8.5 solution. Cells were then washed, suspended in 20 μl of PBS containing 0.5% tween20, 1% donkey serum and 2ul of anti-BrdU antibody (1:10 diution, BD Biosciences) and incubated overnight at 4° C. Cells were then washed and incubated with secondary antibody-anti mouse Alexa488 (1:1000) for 1 hour at room temperature. Cells were finally washed, suspended in PBS containing 100 μg/ml of RNase A, 50 μg/ml of PI (propidium iodide) and 0.05% Triton X and incubated for 30 mins at 37° C. in the dark. The cells were then subjected to FACS using the accuri C6 flow cytometer (UPCI shared resources).

[7] = system: MKL-1 cells; assay: MKL-1 cytotoxicity screen (Cell Titer Glo); conditions: screened at 10^-5 M; 48 hours; cut-off <10% cell survival
From the text: A total of 1,360 compounds were used in the initial screening survey: 1,280 compounds from LOPAC1280 library (Sigma Aldrich, accessed through University of Pittsburgh Drug Discovery Institute), 89 compounds from NCI's Approved Oncology Drug Set II (from The NCI/DTP Open Chemical Repository, http://dtp.cancer.gov), 6 LT ATPase inhibitors (MAL2-11B, MAL3-101, MAL2-51, DMT3084, bithionol and hexachlorophene (Wright et al., Inhibition of Simian Virus 40 replication by targeting the molecular chaperone function and ATPase activity of T antigen. Virus Res 141, 71 (April, 2009); Seguin et al., High-Throughput Screening Identifies a Bisphenol Inhibitor of SV40 Large T Antigen ATPase Activity. […] NCI Approved Oncology Drug Set II, SV40 LT ATPase inhibitors and MDM2 inhibitors were reconstituted as recommended by supplier. […] Reconstituted compounds were diluted in cell culture media to obtain a 100× stock concentration prior to addition to cells. Doxorubicin (positive control) was obtained from Sigma-Aldrich and DMSO (negative control) was obtained from Fisher Bioreagents.
MKL-1 cells were seeded at a density of 6000 cells in 50 μl of medium per well (120 cells/μl) in opaque polypropylene 384-well microplates (#781080, Greiner Bio-One, Germany). Cells were incubated at 37° C. in humidified air containing 5% CO2 for 24 hours. Thereafter, 25 μl of medium containing 3× drug per well was added to the plates, which were incubated for an additional 48 hours. Cell viability was measured using Cell Titer Glo (Promega) following manufacturer's instructions.
The LOPAC1280 library was screened at a final concentration of 10 μM for each compound and the NCI library was screened at a final concentration of 1 μM for each compound.
Cell Titer Glo assays were performed in duplicate using 384 well plates, each containing 24 wells with 1% DMSO (negative control) and 32 wells with 200 μM doxorubicin (positive control). Screening results were evaluated on the basis of percentage cell survival normalized to the DMSO control (100%). Positive candidates were identified using a cut-off value of <10% cell survival.

[8] = Homo sapiens, UISO (MCV-negative), Cell Titer Glo
[9] = Homo sapiens, MS-1 (MCV-positive), Cell Titer Glo, read-out: EC50 concentrations for MCC cell lines, MS-1
[10] = Homo sapiens, MKL-2 (MCV-positive), Cell Titer Glo
[11] = Homo sapiens, WaGa (MCV-positive), Cell Titer Glo
[12] = Homo sapiens, MKL-1 (MCV-positive), Cell Titer Glo, read-out: EC50 concentrations for MCC cell lines, MKL-1
[13] = Homo sapiens, MS-1, read-out: EC50 concentrations for MCC cell lines, MS-1
[14] = Homo sapiens, MKL-1, read-out: EC50 concentrations for MCC cell lines, MKL-1
[15] = UISO (MCV-negative), Cell Titer Glo
[16] = MS-1 (MCV-positive), Cell Titer Glo, read-out: EC50 concentrations for MCC cell lines, MS-1
[17] = MKL-2 (MCV-positive), Cell Titer Glo
[18] = WaGa (MCV-positive), Cell Titer Glo
[19] = MKL-1 (MCV-positive), Cell Titer Glo, read-out: EC50 concentrations for MCC cell lines, MKL-1

O=C1c2c(O)ccc(O)c2C(=O)c2c(NCCNCCO)ccc(NCCNCCO)c21 [Mitoxantrone]
EC50 [1, 8]: 970 nM | EC50 [2, 9]: 1600 nM | EC50 [3, 10]: 1300 nM | EC50 [4, 11]: 14 nM | EC50 [5, 12]: 6 nM

COc1ccc2c(c[n+](C)c3c4cc5c(cc4ccc23)OCO5)c1OC [Chelerythrine chloride]
EC50 [1, 8]: 3700 nM | EC50 [2, 9]: 520 nM | EC50 [3, 10]: 650 nM | EC50 [4, 11]: 700 nM | EC50 [5, 12]: 600 nM

Cc1c2ccncc2c(C)c2c1[nH]c1ccccc12 [Ellipticine]
EC50 [1, 8]: 1100 nM | EC50 [2, 9]: 6900 nM | EC50 [3, 10]: 6500 nM | EC50 [4, 11]: 3000 nM | EC50 [5, 12]: 3200 nM

CC[C@@]1(O)C(=O)OCc2c1cc1n(c2=O)Cc2cc3ccccc3nc2-1 [camptothecin]
BrdU incorporation [6]: accumulation of BrdU-positive cells in G1 and G2

NC(=O)CI [Iodoacetamide]
EC50 ([1]; Homo sapiens): 2500 nM | EC50 [2, 13]: 640 nM | EC50 ([3]; Homo sapiens): 300 nM | EC50 ([4]; Homo sapiens): 370 nM | EC50 [5, 14]: 290 nM

CC[C@@]1(O)C(=O)OCc2c1cc1n(c2=O)Cc2cc3c(CN(C)C)c(O)ccc3nc2-1 [Topotecan]
EC50 [1, 8]: 170 nM | EC50 [2, 9]: 620 nM | EC50 [3, 10]: 430 nM | EC50 [4, 11]: 15 nM | EC50 [5, 12]: 28 nM

CC(C)(C)c1ccc(S(=O)(=O)/C=C/C#N)cc1 [Bay 11-7085]
EC50 [1, 15]: 4500 nM | EC50 [2, 16]: 2700 nM | EC50 [3, 17]: 1700 nM | EC50 [4, 18]: 1200 nM | EC50 [5, 19]: 1400 nM

Nc1nc2c(ncn2COCCO)c(=O)[nH]1 [acyclovir]
activity in screen (>90% inhibition of MKL-1 cell growth) [7]: not active

CO[C@H]1C[C@@H]2CC[C@@H](C)[C@@](O)(O2)C(=O)C(=O)N2CCCC[C@H]2C(=O)O[C@H]([C@H](C)C[C@@H]2CC[C@@H](OCCO)[C@H](OC)C2)CC(=O)[C@H](C)/C=C(\C)[C@@H](O)[C@@H](OC)C(=O)[C@H](C)C[C@H](C)/C=C/C=C/C=C/1C [everolimus]
activity in screen (>90% inhibition of MKL-1 cell growth) [7]: not active

CO[C@H]1C[C@@H]2CC[C@@H](C)[C@@](O)(O2)C(=O)C(=O)N2CCCC[C@H]2C(=O)O[C@H]([C@H](C)C[C@@H]2CC[C@@H](O)[C@H](OC)C2)CC(=O)[C@H](C)/C=C(\C)[C@@H](O)[C@@H](OC)C(=O)[C@H](C)C[C@H](C)/C=C/C=C/C=C/1C [rapamycin]
activity in screen (>90% inhibition of MKL-1 cell growth) [7]: not active

COc1cccc2c1C(=O)c1c(O)c3c(c(O)c1C2=O)C[C@@](O)(C(=O)CO)C[C@@H]3O[C@H]1C[C@H](N)[C@H](O)[C@H](C)O1 [Doxorubicin]
EC50 [1, 8]: 250 nM | EC50 [2, 9]: 370 nM | EC50 [3, 10]: 22 nM | EC50 [4, 11]: 22 nM | EC50 [5, 12]: 210 nM

COc1cc(NS(C)(=O)=O)ccc1Nc1c2ccccc2nc2ccccc12 [Amsacrine hydrochloride]
EC50 [1, 8]: 2600 nM | EC50 [2, 9]: 7500 nM | EC50 [3, 10]: 3000 nM | EC50 [4, 11]: 250 nM | EC50 [5, 12]: 110 nM

CCN(CC)CCCC(C)Nc1c2ccc(Cl)cc2nc2ccc(OC)cc12 (stereo not drawn) [Quinacrine dihydrochloride]
EC50 ([1]; Homo sapiens): 7100 nM | EC50 [2, 13]: 4900 nM | EC50 ([3]; Homo sapiens): 4600 nM | EC50 ([4]; Homo sapiens): 5200 nM | EC50 [5, 14]: 5100 nM

Clc1ccc(C(c2ccc(Cl)cc2)n2cc[n+](CC(OCc3ccc(Cl)cc3Cl)c3ccc(Cl)cc3Cl)c2)cc1 (stereo not drawn) [Calmidazolium chloride]
EC50 [1, 8]: 2000 nM | EC50 [2, 9]: 2100 nM | EC50 [3, 10]: 1700 nM | EC50 [4, 11]: 2100 nM | EC50 [5, 12]: 2200 nM

COc1ccc(C2=N[C@@H](c3ccc(Cl)cc3)[C@@H](c3ccc(Cl)cc3)N2C(=O)N2CCNC(=O)C2)c(OC(C)C)c1 [nutlin-3]
activity in screen (>90% inhibition of MKL-1 cell growth) [7]: not active

C[n+]1cc2c3c(ccc2c2ccc4cc5c(cc4c21)OCO5)OCO3 [Sanguinarine chloride]
EC50 ([1]; Homo sapiens): 6500 nM | EC50 [2, 13]: 4900 nM | EC50 ([3]; Homo sapiens): 8400 nM | EC50 ([4]; Homo sapiens): 2500 nM | EC50 [5, 14]: 5300 nM

CCCCC(=O)OCC(=O)[C@]1(O)Cc2c(O)c3c(c(O)c2[C@@H](O[C@H]2C[C@H](NC(=O)C(F)(F)F)[C@H](O)[C@H](C)O2)C1)C(=O)c1c(OC)cccc1C3=O [Valrubicin]
EC50 [1, 8]: 4000 nM | EC50 [2, 9]: 9900 nM | EC50 [3, 10]: 2800 nM | EC50 [4, 11]: 320 nM | EC50 [5, 12]: 230 nM

COc1cccc2c1C(=O)c1c(O)c3c(c(O)c1C2=O)C[C@@](O)(C(C)=O)C[C@@H]3O[C@H]1C[C@H](N)[C@H](O)[C@H](C)O1 [Daunorubicin]
EC50 ([1]; Homo sapiens): 1400 nM | EC50 [2, 13]: 150 nM | EC50 ([3]; Homo sapiens): 86 nM | EC50 ([4]; Homo sapiens): 18 nM | EC50 [5, 14]: 15 nM

CCN(CC)C(=S)SSC(=S)N(CC)CC [Tetraethylthiuram disulfide]
EC50 [1, 8]: 13000 nM | EC50 [2, 9]: 6300 nM | EC50 [3, 10]: 190 nM | EC50 [4, 11]: 1100 nM | EC50 [5, 12]: 490 nM

CCC(=O)N1CCN(c2ccc(-n3c(=O)ccc4cnc5ccc(-c6cnc7ccccc7c6)cc5c43)cc2C(F)(F)F)CC1 [Torin1]
activity in screen (>90% inhibition of MKL-1 cell growth) [7]: not active

O=C1C(SCCO)=C(SCCO)C(=O)c2ccccc21 [NSC 95397]
EC50 [1, 15]: 2800 nM | EC50 [2, 16]: 1800 nM | EC50 [3, 17]: 1500 nM | EC50 [4, 18]: 730 nM | EC50 [5, 19]: 1200 nM

COc1cc([C@@H]2c3cc4c(cc3[C@@H](O[C@@H]3O[C@@H]5CO[C@@H](c6cccs6)O[C@H]5[C@H](O)[C@H]3O)[C@H]3COC(=O)[C@H]23)OCO4)cc(OC)c1O [Teniposide]
EC50 [1, 8]: 7300 nM | EC50 [2, 9]: 3000 nM | EC50 [3, 10]: 2800 nM | EC50 [4, 11]: 26 nM | EC50 [5, 12]: 10 nM

NC(=O)c1ncn([C@@H]2O[C@H](CO)[C@@H](O)[C@H]2O)n1 [ribavirin]
activity in screen (>90% inhibition of MKL-1 cell growth) [7]: not active
